Data: patent publication US20170190671A1, “BIS(ARYL)CATECHOL DERIVATIVES AS HERBICIDES” (E I DU PONT DE NEMOURS AND COMPANY, priority 2014, published 2017)

Key:
Experiment in all cases: Test D preemergence
Type in all cases: in vivo
Conditions in all cases: scale 0 to 100
[1] = tested on: Italian ryegrass (Lolium multiflorum)
Method in brief: (§1)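 Seeds planted in silt loam soil and sprayed preemergence with test chemical in a non-phytotoxic solvent mixture with surfactant; postemergence plants grown in peat/vermiculite medium and treated at 2–18 cm (1- to 4-leaf stage). Visual rating versus untreated controls after 14 to 21 days, 0 (no effect) to 100 (complete control).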

[2] = tested on: blackgrass (Alopecurus myosuroides)
Method in brief: as §1

[3] = tested on: chamomile (scentless chamomile, Matricaria inodora)
Method in brief: as §1

[4] = tested on: chickweed (common chickweed, Stellaria media)
Method in brief: as §1

[5] = tested on: deadnettle (henbit deadnettle, Lamium amplexicaule)
Method in brief: as §1

[6] = tested on: downy bromegrass (Bromus tectorum)
Method in brief: as §1

[7] = tested on: field poppy (Papaver rhoeas)
Method in brief: as §1

[8] = tested on: field violet (Viola arvensis)
Method in brief: as §1

[9] = tested on: galium (catchweed bedstraw, Galium aparine)
Method in brief: as §1

[10] = tested on: green foxtail (Setaria viridis)
Method in brief: as §1

[11] = tested on: lambsquarters (Chenopodium album)
Method in brief: as §1

[12] = tested on: speedwell (bird's-eye speedwell, Veronica persica)
Method in brief: as §1

[13] = tested on: spring barley (Hordeum vulgare)
Method in brief: as §1

[14] = tested on: wild buckwheat (Polygonum convolvulus)
Method in brief: as §1

[15] = tested on: wild mustard (Sinapis arvensis)
Method in brief: as §1

[16] = tested on: wild radish (Raphanus raphanistrum)
Method in brief: as §1

[17] = tested on: windgrass (Apera spica-venti)
Method in brief: as §1

[18] = tested on: winter barley (Hordeum vulgare)
Method in brief: as §1

[19] = tested on: winter wheat (Triticum aestivum)
Method in brief: as §1

N#Cc1cccc(Oc2ncc(Cl)cn2)c1Oc1ncc(Cl)cn1 [Compound 3, 2,3-bis[(5-chloro-2-pyrimidinyl)oxy]benzonitrile]
30: Plant response rating, Buckwheat, Wild ([14]; 31 g ai/ha) | Plant response rating, Radish, Wild ([16]; 16 g ai/ha)
40: Plant response rating, Ryegrass, Italian ([1]; 125 g ai/ha) | Plant response rating, Barley, Spring ([13]; 125 g ai/ha)
70: Plant response rating, Blackgrass ([2]; 125 g ai/ha) | Plant response rating, Deadnettle ([5]; 16 g ai/ha) | Plant response rating, Speedwell ([12]; 16 g ai/ha) | Plant response rating, Barley, Winter ([18]; 125 g ai/ha)
95: Plant response rating, Deadnettle ([5]; 31 g ai/ha) | Plant response rating, Lambsquarters ([11]; 31 g ai/ha) | Plant response rating, Mustard, Wild ([15]; 62 g ai/ha)
80: Plant response rating, Radish, Wild ([16]; 31 g ai/ha) | Plant response rating, Windgrass ([17]; 125 g ai/ha)
85: Plant response rating, Chamomile ([3]; 125 g ai/ha)
5: Plant response rating, Bromegrass, Downy ([6]; 62 g ai/ha) | Plant response rating, Wheat, Winter ([19]; 62 g ai/ha)
100: Plant response rating, Chickweed ([4]; 16 g ai/ha) | Plant response rating, Chickweed ([4]; 31 g ai/ha) | Plant response rating, Chickweed ([4]; 62 g ai/ha) | Plant response rating, Chickweed ([4]; 125 g ai/ha) | Plant response rating, Deadnettle ([5]; 62 g ai/ha) | Plant response rating, Deadnettle ([5]; 125 g ai/ha) | Plant response rating, Field Poppy ([7]; 31 g ai/ha) | Plant response rating, Field Poppy ([7]; 62 g ai/ha) | Plant response rating, Field Poppy ([7]; 125 g ai/ha) | Plant response rating, Field Violet ([8]; 16 g ai/ha) | Plant response rating, Field Violet ([8]; 31 g ai/ha) | Plant response rating, Field Violet ([8]; 62 g ai/ha) | Plant response rating, Field Violet ([8]; 125 g ai/ha) | Plant response rating, Galium ([9]; 31 g ai/ha) | Plant response rating, Galium ([9]; 62 g ai/ha) | Plant response rating, Galium ([9]; 125 g ai/ha) | Plant response rating, Foxtail, Green ([10]; 62 g ai/ha) | Plant response rating, Foxtail, Green ([10]; 125 g ai/ha) | Plant response rating, Lambsquarters ([11]; 62 g ai/ha) | Plant response rating, Lambsquarters ([11]; 125 g ai/ha) | Plant response rating, Speedwell ([12]; 31 g ai/ha) | Plant response rating, Speedwell ([12]; 62 g ai/ha) | Plant response rating, Speedwell ([12]; 125 g ai/ha) | Plant response rating, Buckwheat, Wild ([14]; 125 g ai/ha) | Plant response rating, Mustard, Wild ([15]; 125 g ai/ha) | Plant response rating, Radish, Wild ([16]; 62 g ai/ha) | Plant response rating, Radish, Wild ([16]; 125 g ai/ha)
35: Plant response rating, Blackgrass ([2]; 62 g ai/ha) | Plant response rating, Chamomile ([3]; 62 g ai/ha)
90: Plant response rating, Field Poppy ([7]; 16 g ai/ha)
20: Plant response rating, Chamomile ([3]; 31 g ai/ha) | Plant response rating, Galium ([9]; 16 g ai/ha) | Plant response rating, Barley, Winter ([18]; 62 g ai/ha)
50: Plant response rating, Ryegrass, Italian ([1]; 62 g ai/ha) | Plant response rating, Windgrass ([17]; 62 g ai/ha)
0: Plant response rating, Ryegrass, Italian ([1]; 16 g ai/ha) | Plant response rating, Ryegrass, Italian ([1]; 31 g ai/ha) | Plant response rating, Blackgrass ([2]; 16 g ai/ha) | Plant response rating, Bromegrass, Downy ([6]; 16 g ai/ha) | Plant response rating, Bromegrass, Downy ([6]; 31 g ai/ha) | Plant response rating, Barley, Spring ([13]; 16 g ai/ha) | Plant response rating, Barley, Spring ([13]; 31 g ai/ha) | Plant response rating, Barley, Spring ([13]; 62 g ai/ha) | Plant response rating, Buckwheat, Wild ([14]; 16 g ai/ha) | Plant response rating, Barley, Winter ([18]; 16 g ai/ha) | Plant response rating, Barley, Winter ([18]; 31 g ai/ha) | Plant response rating, Wheat, Winter ([19]; 16 g ai/ha) | Plant response rating, Wheat, Winter ([19]; 31 g ai/ha)
15: Plant response rating, Bromegrass, Downy ([6]; 125 g ai/ha) | Plant response rating, Mustard, Wild ([15]; 16 g ai/ha) | Plant response rating, Windgrass ([17]; 31 g ai/ha)
75: Plant response rating, Buckwheat, Wild ([14]; 62 g ai/ha)
60: Plant response rating, Foxtail, Green ([10]; 31 g ai/ha) | Plant response rating, Mustard, Wild ([15]; 31 g ai/ha)
10: Plant response rating, Blackgrass ([2]; 31 g ai/ha) | Plant response rating, Chamomile ([3]; 16 g ai/ha) | Plant response rating, Foxtail, Green ([10]; 16 g ai/ha) | Plant response rating, Lambsquarters ([11]; 16 g ai/ha) | Plant response rating, Windgrass ([17]; 16 g ai/ha) | Plant response rating, Wheat, Winter ([19]; 125 g ai/ha)
